In one assay the test system is THP1 cells. Nature of the assay: Lipopolysaccharide-activated THP1 cell TNF production assay. Type of assay: cell-based, human. The settings on record: Homo sapiens, THP-1; LPS-induced TNF-α production in THP1 cells. The protocol:
Lipopolysaccharide-Activated THP1 Cell TNF Production Assay
THP1 cells are resuspended in fresh THP1 media (RPMI 1640, 10% heat-inactivated FBS, 1×PGS, 1×NEAA, plus 30 μM βME) at a concentration of 1E6/mL. One hundred microliters of cells per well are plated in a polystyrene 96-well tissue culture. One microgram per mL of bacterial LPS is prepared in THP1 media and is transferred to the wells. Test compounds are dissolved in 100% DMSO and are serially diluted 3-fold in a polypropylene 96-well microtiter plate (drug plate). HI control and LO control wells contain only DMSO. One microliter of test compound from the drug plate followed by 10 μL of LPS are transferred to the cell plate. The treated cells are induced to synthesize and secrete TNF-α at 37° C. for 3 h. Forty microliters of conditioned media are transferred to a 96-well polypropylene plate containing 110 μL of ECL buffer (50 mM Tris-HCl pH 8.0, 100 mM NaCl, 0.05% Tween 20, 0.05% NaN3 and 1% FBS) supplemented with 0.44 nM MAB610 monoclonal Ab (R&D Systems), 0.34 nM ruthenylated AF210NA polyclonal Ab (R&D Systems) and 44 μg/mL sheep anti-mouse M280 Dynabeads (Dynal). After a 2 h incubation at room temperature with shaking, the reaction is read on the ECL M8 Instrument (IGEN Inc.). A low voltage is applied to the ruthenylated TNF-α immune complexes, which in the presence of TPA (the active component in Origlo), results in a cyclical redox reaction generating light at […]. The amount of secreted TNF-α in the presence of compound compared with that in the presence of DMSO vehicle alone (HI control) is calculated using the formula: % control (POC)=(cpd−average LO)/(average HI−average LO)*100. Data (consisting of POC and inhibitor concentration in μM) is fitted to a 4-parameter equation (y=A+((B−A)/(1+((x/C)^D))), where A is the minimum y (POC) value, B is the maximum y (POC), C is the x (cpd concentration) at the point of inflection and D is the slope factor) using a Levenburg-Marquardt non-linear regression algorithm.

The subject of a further assay is monocytes. Nature of the assay: Lipopolysaccharide-activated monocyte TNF production assay (LPS induced TNF release). It counts as cell-based, human. The settings on record: Homo sapiens, Monocyte; LPS induced TNF release from monocytes; read-out: LPS induced TNFa. The protocol:
Lipopolysaccharide-Activated Monocyte TNF Production Assay
Test compounds were evaluated in vitro for the ability to inhibit the production of TNF by monocytes activated with bacterial lipopolysaccharide (LPS). Fresh residual source leukocytes (a byproduct of plateletpheresis) were obtained from a local blood bank, and peripheral blood mononuclear cells (PBMCs) were isolated by density gradient centrifugation on Ficol-Paque Plus (Pharmacia). PBMCs were suspended at 2×10^6/mL in DMEM supplemented to contain 2% FCS, 10 mM, 0.3 mg/mL […], 100 U/mL penicillin G and […] streptomycin sulfate (complete media). Cells were plated into Falcon flat bottom, 96 well culture plates (200 μL/well) and cultured overnight at 37° C. and 6% CO2. Non-adherent cells were removed by washing with 200 μl/well of fresh medium. Wells containing adherent cells (˜70% monocytes) were replenished with 100 μL of fresh medium.
Preparation of Test Compound Stock Solutions
Test compounds were dissolved in […]. Compound stock solutions were prepared to an initial concentration of […]. Stocks were diluted initially to […] in complete media. Nine two-fold serial dilutions of each compound were then prepared in complete medium.
Treatment of Cells with Test Compounds and Activation of TNF Production with Lipopolysaccharide
One hundred microliters of each test compound dilution were added to microtiter wells containing adherent monocytes and 100 μL complete medium. Monocytes were cultured with test compounds for 60 min at which time 25 μL of complete medium containing 30 ng/mL lipopolysaccharide from E. coli K532 were added to each well. Cells were cultured an additional 4 hrs. Culture supernatants were then removed and TNF presence in the supernatants was quantified using an ELISA.
Flat bottom, 96 well Corning High Binding ELISA plates were coated overnight (4° C.) with 150 μL/well of 3 μg/mL murine anti-human TNF-α MAb (R&D Systems #MAB210). Wells were then blocked for 1 h at room temperature with 200 μL/well of CaCl2-free ELISA buffer supplemented to contain 20 mg/mL BSA (standard ELISA buffer: […], 150 mM NaCl, 2 mM CaCl2, 0.15 mM thimerosal, pH 7.4). Plates were washed and replenished with 100 μL of test supernatants (diluted 1:3) or standards. Standards consisted of eleven 1.5-fold serial dilutions from a stock of 1 ng/mL recombinant human TNF (R&D Systems). Plates were incubated at room temperature for 1 h on orbital shaker (300 rpm), washed and replenished with 100 μL/well of 0.5 μg/mL goat anti-human TNF-α (R&D systems #AB-210-NA) biotinylated at a 4:1 ratio. Plates were incubated for 40 min, washed and replenished with 100 μL/well of alkaline phosphatase-conjugated streptavidin (Jackson ImmunoResearch #016-050-084) at 0.02 μg/mL. Plates were incubated 30 min, washed and replenished with 200 μL/well of 1 mg/mL of p-nitrophenyl phosphate.
Standard curve data were fit to a second order polynomial and unknown TNF-α concentrations determined from their OD by solving this equation for concentration. TNF concentrations were then plotted vs. test compound concentration using a second order polynomial. This equation was then used to calculate the concentration of test compounds causing a 50% reduction in TNF production.

The target in a further assay is p38α (Homo sapiens, UniProt Q16539). Nature of the assay: p38 in-vitro HTRF enzyme assay. Type of assay: biochemical. The settings on record: IC50 value ranges. The protocol:
p38 In-Vitro HTRF Enzyme Assay
The compounds of the invention can be tested for their respective affinities for the p38 protein using a conventional p38 in-vitro enzyme activity assay. For example, a P38-alpha HTRF assay may be used to measure the protein's in-vitro phosphorylation activity, and the data analyzed using time resolved fluorimetry techniques (FRET). A p38 HTRF assay is as follows. The kinase reaction buffer for p38α, p38β, p38δ and p38γ HTRF assays consists of 50 mM Tris-pH 7.5, 5 mM MgCl2, 0.1 mg/mL BSA, 100 μM Na3VO4 and 0.5 mM DTT. The HTRF detection buffer contains 100 mM HEPES-pH 7.5, 100 mM NaCl, 0.1% BSA, 0.05% Tween-20, and 10 mM EDTA. Each compound was dissolved in 100% DMSO and serially diluted (3 fold, 10 point) in a polypropylene 96-well microtiter plate (drug plate). The final starting concentration of the compound in the p38α and p38β enzymatic assays was about 1 μM. The final starting concentration of each compound in the p38δ and p38γ enzymatic assays was about 10 μM. The p38α, p38β, p38δ and p38γ kinase reactions were carried out in a polypropylene 96-well black round bottom assay plate in total volume of 30 μL kinase reaction buffer. Appropriate concentration of purified and activated enzyme (recombinant human) was mixed with indicated concentration of ATP and 100 nM GST-ATF2-Avitag, in the presence or absence (HI control) of each compound. In the absence of enzyme, the background was measured as LO control. HI controls and LO controls contained only DMSO. The reaction was allowed to incubate for 1 hour at RT. […] After 60 minutes incubation at room temperature, the assay plate was read in a Discovery Plate Reader. The wells were excited with coherent 320 nm light and the ratio of delayed ([…] post excitation) emissions at […] (native europium fluorescence) and 665 nm (europium fluorescence transferred to allophycocyanin—an index of substrate phosphorylation) was determined (Park et al, 1999). The resulting data was analyzed by taking the proportion of substrate phosphorylated in the kinase reaction in the presence of each individual compound and comparing it with that phosphorylated in the presence of DMSO vehicle alone (HI control). The data was calculated using the formula: % control (POC)=(compound−average LO)/(average HI−average LO)*100. Data (consisting of POC and inhibitor concentration in μM) was fitted to a 4-parameter equation (y=A+((B−A)/(1+((x/C)^D))), where A is the minimum y (POC) value, B is the maximum y (POC), C is the x (compound concentration) at the point of inflection and D is the slope factor, using a Levenburg-Marquardt non-linear regression algorithm. The inhibition constant (Ki) of the inhibitor was estimated from the IC50 (compound concentration at the point of inflection C) using the Cheng-Prussof equation: Ki=IC50/(1+S/Km), where S is the ATP substrate concentration, and Km is the Michaelis constant for ATP as determined experimentally. All results were expressed as the mean±the standard error of the mean. Data acquisition and non-linear regression algorithms were performed using Activity Base v5.2 and XLfit software v4.1 respectively. Additional assay information may be obtained in Park Y W, Cummings R T, Wu L, et al. Homogeneous Proximity Tyrosine Kinase Assays Scintillation Proximity Assay versus Homogeneous Time-Resolved Fluorescence. Analytical Biochemistry. 1999; 269: 94-104.
In general terms: In TR-FRET formats the signal depends on donor and acceptor labels being close together.

Consider twelve compounds from patent US7700593B2, “Imidazo- and triazolo-pyridine compounds and methods of use thereof” (Amgen Inc., priority 2006, dated 2010).

p38α, sequence (Q16539 whole entry): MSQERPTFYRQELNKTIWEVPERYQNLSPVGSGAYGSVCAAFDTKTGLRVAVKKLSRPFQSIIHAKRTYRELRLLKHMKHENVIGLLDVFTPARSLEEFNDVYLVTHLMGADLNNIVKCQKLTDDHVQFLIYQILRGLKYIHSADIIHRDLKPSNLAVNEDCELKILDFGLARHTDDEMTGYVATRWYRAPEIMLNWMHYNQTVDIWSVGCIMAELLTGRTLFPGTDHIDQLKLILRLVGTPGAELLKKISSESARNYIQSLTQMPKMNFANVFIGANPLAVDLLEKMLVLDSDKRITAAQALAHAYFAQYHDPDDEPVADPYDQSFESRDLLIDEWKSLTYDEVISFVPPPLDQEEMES

On to `Cc1ccc(C(=O)NC2CC2)cc1-c1ccn2c(-c3c(F)cccc3F)nnc2c1` [Example 65, N-cyclopropyl-3-(3-(2,6-difluorophenyl)[1,2,4]triazolo[4,3-a]pyridin-7-yl)-4-methylbenzamide], for which the IC50 with THP1 cells and in the assay with monocytes was under 25 nM in each case.
Consider `Cc1cc(F)c(C(=O)NC2CC2)cc1-c1ccn2c(-c3sccc3C)nnc2c1` [Example 67, N-cyclopropyl-2-fluoro-4-methyl-5-(3-(3-methyl-2-thienyl)[1,2,4]triazolo[4,3-a]pyridin-7-yl)benzamide], for which the IC50 in the assay on THP1 cells lay in the range of 25 to 100 nM; in the assay with monocytes, 100 to 250 nM.
In the case of `Cc1cc(F)c(C(=O)Nc2ccnn2C)cc1-c1ccn2c(-c3sccc3C)nnc2c1` [Example 68, 2-fluoro-4-methyl-N-(1-methyl-1H-pyrazol-5-yl)-5-(3-(3-methyl-2-thienyl)[1,2,4]triazolo[4,3-a]pyridin-7-yl)benzamide], the IC50 in the assay with THP1 cells is under 25 nM; in the assay with monocytes, 100 to 250 nM.
As to `Cc1cc(F)c(C(=O)Nc2ccnn2C)cc1-c1ccn2c(-c3ccccc3Cl)nnc2c1` [Example 71, 5-(3-(2-chlorophenyl)[1,2,4]triazolo[4,3-a]pyridin-7-yl)-2-fluoro-4-methyl-N-(1-methyl-1H-pyrazol-5-yl)benzamide], the IC50 in the assay with THP1 cells was 25 to 100 nM; in the assay on monocytes, 100 to 250 nM.
On the same counts, the results for `Cc1cc(F)c(C(=O)NC2CC2)cc1-c1ccn2c(-c3c(F)cccc3Cl)nnc2c1` [Example 72, 5-(3-(2-chloro-6-fluorophenyl)[1,2,4]triazolo[4,3-a]pyridin-7-yl)-N-cyclopropyl-2-fluoro-4-methylbenzamide] are 25 to 100 nM and 25 to 100 nM.
Regarding `Cc1cc(F)c(C(=O)Nc2ccnn2C)cc1-c1ccn2c(-c3c(F)cccc3Cl)nnc2c1` [Example 73, 5-(3-(2-chloro-6-fluorophenyl)[1,2,4]triazolo[4,3-a]pyridin-7-yl)-2-fluoro-4-methyl-N-(1-methyl-1H-pyrazol-5-yl)benzamide], the IC50 was under 25 nM in the assay on THP1 cells and 25 to 100 nM with monocytes.
With `Cc1c(F)cc(C(=O)NC2CC2)cc1-c1ccn2c(C(C)(C)C)nnc2c1C` [Example 76, N-cyclopropyl-3-(3-(1,1-dimethylethyl)-8-methyl[1,2,4]triazolo[4,3-a]pyridin-7-yl)-5-fluoro-4-methylbenzamide], the IC50 in the assay with THP1 cells was 25 to 100 nM; with monocytes, 100 to 250 nM.
Turning to `Cc1ccc(C(=O)NC2CC2)cc1-c1ccn2c(C(C)(C)C)nnc2c1C` [Example 77, N-cyclopropyl-3-(3-(1,1-dimethylethyl)-8-methyl[1,2,4]triazolo[4,3-a]pyridin-7-yl)-4-methylbenzamide], the IC50 was in the range of 25 to 100 nM in the assay with THP1 cells and 100 to 250 nM in the assay with monocytes.
For `Cc1ccc(C(=O)NC2CC2)cc1-c1ccn2c(-c3c(C)cccc3F)nnc2c1` [Example 84, N-cyclopropyl-3-(3-(2-fluoro-6-methylphenyl)[1,2,4]triazolo[4,3-a]pyridin-7-yl)-4-methylbenzamide], the IC50 on p38α was under 25 nM.
Same read-out and setting: in the case of `COc1ccccc1-c1nnc2cc(-c3cc(C(=O)NC4CC4)ccc3C)ccn12` [Example 85, N-cyclopropyl-4-methyl-3-(3-(2-(methyloxy)phenyl)[1,2,4]triazolo[4,3-a]pyridin-7-yl)benzamide] it was under 25 nM.
Regarding `Cc1ccc(C(=O)NC2CC2)cc1-c1ccn2c([C@@H](C)C(F)(F)F)nnc2c1` [Example 87, N-cyclopropyl-4-methyl-3-(3-((1R)-2,2,2-trifluoro-1-methylethyl)[1,2,4]triazolo[4,3-a]pyridin-7-yl)benzamide], the results for the IC50 in the assay on THP1 cells and with monocytes were 25 to 100 nM and 100 to 250 nM, respectively.
Regarding `Cc1ccc(C(=O)NC2CC2)cc1-c1ccn2c(N3CCNC3=O)nnc2c1` [Example 100, N-cyclopropyl-4-methyl-3-(3-(2-oxo-1-imidazolidinyl)[1,2,4]triazolo[4,3-a]pyridin-7-yl)benzamide], the IC50 was in the range of 250 to 1000 nM in the assay with THP1 cells and 1000 to 5000 nM with monocytes.
